# Laboratory results reported in patent US20140351961A1, “COMPOSITIONS AND METHODS FOR TREATMENT OF METASTATIC CANCER” (priority 2011, published 2014).
# Residues, ends and D or L forms follow the SMILES beside them. *: point of attachment. Cbz = O=C(OCc1ccccc1)*
# Legend:
# IFN-γ = assay: In vitro cross-presentation assay (IFN-γ release by B3Z cells); type: cell-based, mouse; conditions: Hsp25-siRNA- and control-siRNA-treated BMDC; 10 μM
# AsPC1 cells = assay: MTS cytotoxicity assay, AsPC1 cells pre-treated with control or CH101; type: cell-based; conditions: Homo sapiens, AsPC1, highly metastatic pancreatic cell, 48 h control or CH101 pre-treatment, then 72 h drug
# Procedure: FIG. 8A-B. Combining CH101 with oxaliplatm synergistieally functions to reduce the IC50 in the highly agreesive, highly metastatic pancreatic cell, AsPC1, AsPC1 cells (10^6) were plated in 96-well plates and either pre-treated with control (top panel) or CH101 (bottom panel) for 48 hrs in a 37 degree C incubator. AsPC1 cells were then treated with various doses of oxaliplatm (A) or irlootecan (B) and further incubated for 72 h. Cytotoxicity was measured using the classical MTS assay.
# Panc-1 cells = assay: MTS cytotoxicity assay, Panc-1 cells pre-treated with control or CH101; type: cell-based; conditions: Panc-1, weakly metastatic pancreatic cell, 48 h control or CH101 pre-treatment, then 72 h drug
# Procedure: FIG. 7. Combining CH101 with oxaliplatin synergistically functions to reduce the IC50 in the weakly metastatic pancreatic cell Panc-1. Panc-1 cells (10^6) were plated in 96-well plates and either pre-treated with control (top panel) or CH101 (bottom panel) for 48 h in a 37 degree C incubator. Panc-1 cells were then treated with various doses of oxaliplatm and further incubated for 72 hours. Cytotoxicity was measured using the classical MTS assay.
# [1] = tested on: MDA-MB-231, AsPC1, MCF7, Panc-1; assay: CH101 against highly metastatic versus non- or weakly metastatic cancers; type: cell-based; conditions: MDA-MB-231 and AsPC1 versus MCF7 and Panc-1
molecule,measurement,setting,value
CC(C)C[C@@H](C=O)NC(=O)[C@H](CC(C)C)NC(=O)[C@H](CC(C)C)NC(=O)OCc1ccccc1 [MG-132] (Cbz-Leu-Leu-Leu-aldehyde),IFN-γ released by B3Z cells after proteasome inhibitor pre-treatment,IFN-γ,significantly reduced the concentration of released IFN-γ
CCc1c2c(nc3ccc(OC(=O)N4CCC(N5CCCCC5)CC4)cc13)-c1cc3c(c(=O)n1C2)COC(=O)[C@]3(O)CC [irinotecan],IC50,AsPC1 cells,36.8 µM
O=C1[O][Pt]2([NH][C@@H]3CCCC[C@H]3[NH]2)[O]C1=O [oxaliplatin],IC50,Panc-1 cells,23 µM
"CH101: cocktail of two dsRNA molecules, dsRNA SEQ ID NO:8/SEQ ID NO:9 and dsRNA SEQ ID NO:10/SEQ ID NO:11, blocking Hsp27 (nucleic acid, two duplexes cocktail, further chemistry not given here) chain 1: AAGGACGAGCATGGCTACATC chain 2: GATGTAGCCATGCTCGTCCTT chain 3: CACAGCCGCCTCTTCGATCAA chain 4: TTGATCGAAGAGGCGGCTGTG",relative effectiveness by metastatic type of cancer,[1],more effective against highly metastatic cancers
